Data set [1] can be described thus: Plasma protein binding (PPB), rapid equilibrium dialysis. Format: in vitro ADME. Particulars: male, Sprague Dawley, rat, 37° C., 6 h dialysis. The method, then:
(§1) Method for Determination of Plasma Protein Binding (PPB) and Brain Tissue Binding (BTB) Compound Preparation • Compounds were dissolved in DMSO to give a 1 mg free base/mL solution, before further dilution to 100 μg/mL in acetonitrile (100 μL of 1 mg/mL into 900 μL acetonitrile). Matrix Preparation • On the morning of dialysis, control male Sprague Dawley rat plasma and brain, previously stored at −80° C. were thawed at room temperature. Plasma was checked for pH and if necessary adjusted to 7.4 with 1M HCl. Plasma was then centrifuged (2000 g for 10 min) and the brains diluted with 2 mL of Phosphate Buffered Saline (pH 7.4) per gram of tissue and homogenised using a mechanical homogeniser. An aliquot (10 μL) of the 100 μg/mL acetonitrile compound solution was then added to 1 mL of plasma and brain homogenate and vortex mixed to give a final compound concentration of 1 μg/mL in matrix. RED Plate Preparation • The Rapid Equilibrium Dialysis (RED) plate (Thermo Scientific) was prepared in accordance with the manufacturers guidelines i.e. the base plate was soaked in 20% (v/v) ethanol for 10 min and then rinsed twice with deionised water before being allowed to dry. The base plate was then filled with the appropriate number of disposable inserts (n=3 per compound) (Thermo Scientific) and matrix containing 1 μg/mL compound added into the matrix chamber of the inserts (200 μL) and an aliquot (350 μL) of PBS added to the buffer chamber. The plate was then covered with an adhesive and incubated in air at 37° C. for 6 h with 130 rpm agitation. Sampling • Following the 6 h incubation, the seal was removed and an aliquot (50 μL) taken from the PBS chambers and dispensed into Micronics tubes. Also, an aliquot (50 μL) was removed from the matrix chambers and placed into separate Micronics tubes. Plasma and brain was then matrix matched with 50 μL of drug-free PBS and the PBS samples with 50 μL of the corresponding drug-free matrix, to give equal final compositions and volumes […]. Sample Analysis • Samples were vortex mixed and an aliquot (300 μL) of acetonitrile containing 0.1% formic acid and 100 ng/mL of an appropriate internal standard added. Samples were then mixed and centrifuged (2000 g for 15 min) and an aliquot of the supernatant (100 μL) removed into a 96-deep well plate and diluted with an equal volume of water ready for analysis by LC-MS/MS. • The following data was obtained for the following compounds in the above assay (Table 5).
Background: In equilibrium dialysis only unbound substance equilibrates across the membrane.

A short description of data set [2]: Brain tissue binding (BTB), rapid equilibrium dialysis. Format: in vitro ADME, Sprague Dawley rat. Particulars: 1 μg/mL in rat brain homogenate, 37° C., 6 h dialysis, mean of n = 3; for fraction unbound at 6 h, 1 μg/mL: male, Sprague Dawley, pH 7.4, read-out: Rat Brain fu. Here is the method: as §1
Data set [3] is described as follows: Human liver microsomal stability assay. As to conditions: 0.1 μmol/L compound, 30 min, 37° C., NADPH generating system. It counts as in vitro ADME. The method, then:
Human Liver Microsomal Stability Assay The compound was dissolved in DMSO to prepare 1 mmol/L DMSO solution. The DMSO solution was diluted with distilled water to prepare 1 μmol/L compound dosing solution (DMSO conc.: 0.1%). 105 μL of reaction buffer (1 mol/L phosphate buffer (pH 7.4)/1 mmol/L EDTA (pH 7.4)/distilled water=1/1/5, v/v/v), 15 μL of 1 μmol/L compound dosing solution, and 15 μL of rat or human liver microsomes (5 mg/mL) were mixed, and preincubated for 5 min at 37° C. Metabolic reaction was initiated by adding 15 μL of NADPH generating system (3.3 mmol/L β-NADPH+, 80 mmol/L glucose 6-phosphate, 1 unit/mL glucose 6-phosphate dehydrogenase, 60 mmol/L MgCl2). For the control sample, NADPH generating system was replaced with 60 mmol/L MgCl2. The 150 μL of reaction mixture (final compound conc.: 0.1 μmol/L, final DMSO conc.: 0.01%) was incubated for 30 min at 37° C., and the reaction was terminated by adding 150 μL of methanol/acetonitrile solution containing an appropriate internal standard compound. The sample was vortexed and centrifuged, and obtained supernatant was subject to LC/MS analysis.
(In general: Microsomes from liver hold many membrane-bound enzymes, among them those of drug oxidation.)

The mark [4] stands for this setting: pH 7.4, 1 μg/mL in rat plasma, mean of n = 3, read-out: Rat PPB (%) (converted).
Where [5] appears, read: pH 7.4, fraction unbound, 1 μg/mL in rat plasma, mean of n = 3, read-out: Rat Plasma fu.

Take `COc1cnc(C(=O)Nc2cc(F)c(F)c([C@]34CO[C@H](CF)[C@H]3CSC(N)=N4)c2)cn1` [Example 4, N-(3-((4aS,5S,7aS)-2-amino-5-(fluoromethyl)-4a,5,7,7a-tetrahydro-4H-furo[3,4-d][1,3]thiazin-7a-yl)-4,5-difluorophenyl)-5-methoxypyrazine-2-carboxamide]: the fraction unbound at 6 h, 1 μg/mL in data set [1] (setting [4]) was 0.13; in data set [1] (setting [5]), 0.13; in data set [2], 0.021. Also, the “Rat BTB (%)” value in data set [2] was found to be 97.9%. In data set [3], the “HLM stability: percentage of parent remaining upon 30 minute incubation with human liver microsomes” value is recorded as 78.6%.
`COc1cnc(C(=O)Nc2ccc(F)c([C@]34CO[C@H](C(F)F)[C@H]3CSC(N)=N4)c2)cn1` [Example 3, N-(3-((4aS,5S,7aS)-2-amino-5-(difluoromethyl)-4a,5,7,7a-tetrahydro-4H-furo[3,4-d][1,3]thiazin-7a-yl)-4-fluorophenyl)-5-methoxypyrazine-2-carboxamide]: the fraction unbound at 6 h, 1 μg/mL in data set [1] (setting [4]) is 0.143; in data set [1] (setting [5]), 0.143; in data set [2] it was 0.035. Moreover, in data set [2], the “Rat BTB (%)” value turned out to be 96.5%. For the same compound, the “HLM stability: percentage of parent remaining upon 30 minute incubation with human liver microsomes” value in data set [3] worked out at 73.3%.
Regarding `COc1cnc(C(=O)Nc2ccc(F)c([C@]34CO[C@H](CF)[C@H]3CSC(N)=N4)c2)cn1` [Example 2, N-(3-((4aS,5S,7aS)-2-amino-5-(fluoromethyl)-4a,5,7,7a-tetrahydro-4H-furo[3,4-d][1,3]thiazin-7a-yl)-4-fluorophenyl)-5-methoxypyrazine-2-carboxamide], the fraction unbound at 6 h, 1 μg/mL is 0.251 in data set [1] (setting [4]), 0.252 in data set [1] (setting [5]) and 0.066 in data set [2]. Further, in data set [2], the “Rat BTB (%)” value is 93.4%. Also, the “HLM stability: percentage of parent remaining upon 30 minute incubation with human liver microsomes” value in data set [3] came out at 82.0%.

The record behind these values is patent US9175013B2, “Fused aminodihydrothiazine derivatives” (Eisai R&D Management Co., Ltd., priority 2011, dated 2015).
